The record followed here is US12319913B2, “5-halouracil-modified microRNAs and their use in the treatment of cancer” (The Research Foundation for The State University of New York, priority 2018, dated 2025).

Assay type in all cases: cell-based, human
Data set [1] deals with Hs766T pancreatic cancer cells. The data set can be described thus: Cell proliferation, Hs766T. The settings on record: compared to negative controls. The method, then: (§1) For transfections, 1×10^5 cells were plated in six-well plates and transfected with 100 nM of control non-specific miRNA (Thermo Fischer), a modified microRNA, or exogenous native microRNA after 24 hours using Oligofectamine (Thermo Fischer) following the manufacturer's protocols. For reagent free transfection, cells were plated in 6 well plates at (1×10^5) cells per well. Twenty-four hours later 100 pmol miRNA (Control, miR-15a, Mimic-1) were diluted in Optimem (Thermo Fischer) and added to the plate. Media was changed after 24 hours. Media was supplemented with 10% fetal bovine serum (Thermo Fischer). Briefly, cells were cultured in growth media (DMEM/F12 supplemented with B27, 10 ng/mL bFGF, and 20 ng/mL EGF (Life Technologies) in ultra-low attachment flasks) for up to 6 days. The spheroid cells were maintained by collection through gentle centrifugation, dissociation to single cells and replating.
(§2) Cell proliferation assay: Twenty-four hours after transfection, cells were seeded in 96-well plates at a density of 2000 cells per well. The cell proliferation assay was performed on days 1 to 5 by incubating 10 μl WST-1 (Roche Applied Science, Mannheim, Germany) in the culture medium for 1 h and reading the absorbance at 450 and 630 nm. The cell proliferation rate was calculated by subtracting the […]. Experiments for the cell proliferation assay were performed at least three times. The O.D. was calculated by subtracting the absorbance at 630 nm from that at 450 nm. Proliferation experiments were performed three times.

Data set [2] deals with acute lymphocytic leukemia cell line (REH). The data set can be described thus: Cell proliferation, REH. The conditions noted are these: compared to negative controls. The method, then:
as §1, §2

Data set [3] relates to AsPC-1 pancreatic cancer cells. The data set can be described thus: Cell proliferation, AsPC-1. The settings on record: APSC-1; 50 nM, 25 nM, 12.5 nM, 6.25 nM, and 3.125 nM. The method, then:
as §1, with “For transfections, 1×10^5 cells were plated in six-well plates and transfected with 100 nM of control non-specific miRNA (Thermo Fischer), a modified microRNA, or exogenous native microRNA after 24 hours using Oligofectamine (Thermo Fischer) following the manufacturer's protocols.” left out
as §2

Data set [4] deals with AGS stomach cancer cells. The data set can be described thus: Cell proliferation, AGS. The settings on record: compared to negative controls. The method, then: as §1, §2
For data set [5], the system named is SKBR3 breast cancer cells. Description: Cell proliferation, SKBR3. The conditions noted are these: SKBR3, compared to negative controls. The method, then:
as §1, §2

Data set [6] deals with acute lymphocytic leukemia cell line (REH). Description: Cell proliferation, REH. The conditions noted are these: 50 nM, 25 nM, 12.5 nM, 6.25 nM, and 3.125 nM.
The subject of data set [7] is Panc-1 pancreatic cancer cells. Description: Cell proliferation, Panc-1. The conditions noted are these: PANC-1; 50 nM, 25 nM, 12.5 nM, 6.25 nM, and 3.125 nM. The method, then: as §1, with “For transfections, 1×10^5 cells were plated in six-well plates and transfected with 100 nM of control non-specific miRNA (Thermo Fischer), a modified microRNA, or exogenous native microRNA after 24 hours using Oligofectamine (Thermo Fischer) following the manufacturer's protocols.” left out
as §2

For data set [8], the system named is A549 lung cancer cells. The data set can be described thus: Cell proliferation, A549. The settings on record: A549, compared to negative controls. As for the experimental part:
as §1, §2

[5FU] = 5-fluorouracil base replacing uracil

Regarding “AU^FCCU^FU^FGCUAU^FCU^FGGGU^FGCU^FA (AUCCUUGCUAUCUGGGUGCUA; RNA, [5FU] at 2, 5, 6, 11, 13, 17, 20, backbone not given here) [modified miR-502]”, the “pancreatic cancer cell proliferation” value in data set [1] is reported as “inhibited”. Also, the “leukemia cancer cell proliferation” value in data set [2] is reported as “inhibited”. For the same substance, the “cell proliferation, dose dependence” value in data set [3] and in data set [7] was “inhibited in a dose dependent manner” each time. Further, the “gastric cancer cell proliferation” value in data set [4] was “inhibited”. Further, the “breast cancer cell proliferation” value in data set [5] is listed as “inhibited”. The “leukemia cancer cell proliferation, dose dependence” value in data set [6] is “inhibited in a dose dependent manner”. For the same substance, in data set [8], the “lung cancer cell proliferation” value is “inhibited”.

As for “CAGU^FGGU^FU^FU^FU^FACCCU^FAU^FGGU^F AG (CAGUGGUUUUACCCUAUGGUAG; RNA, [5FU] at 4, 7, 8, 9, 10, 15, 17, 20, backbone not given here) [modified miR-140 [SEQ ID NO. 16]]”, the “pancreatic cancer cell proliferation” value in data set [1] was “inhibited”. Besides, the “leukemia cancer cell proliferation” value in data set [2] is given as “inhibited”. Also, the “cell proliferation, dose dependence” value in data set [3] and in data set [7] was “inhibited in a dose dependent manner” in each case. Moreover, in data set [4], the “gastric cancer cell proliferation” value is on record as “inhibited”. Besides, the “breast cancer cell proliferation” value in data set [5] was “inhibited”. In data set [6], the “leukemia cancer cell proliferation, dose dependence” value was “inhibited in a dose dependent manner”. For the same substance, in data set [8], the “lung cancer cell proliferation” value is “inhibited”.

“U^FAACACU^FGU^FCU^FGGU^FAACGAU^FGU^F (UAACACUGUCUGGUAACGAUGU; U replaced by 5-fluorouracil, chemistry not fully specified) [modified miR-200a, miR-200a in which all (7) U bases are replaced by 5-fluorouracil]”: the “pancreatic cancer cell proliferation” value in data set [1] is on record as “inhibited”. For the same substance, in data set [2], the “leukemia cancer cell proliferation” value is reported as “inhibited”. The “cell proliferation, dose dependence” value in data set [3] and in data set [7] was “inhibited in a dose dependent manner” each time. The “gastric cancer cell proliferation” value in data set [4] was “inhibited”. Further, in data set [5], the “breast cancer cell proliferation” value is listed as “inhibited”. Further, the “leukemia cancer cell proliferation, dose dependence” value in data set [6] is “inhibited in a dose dependent manner”. In data set [8], the “lung cancer cell proliferation” value was “inhibited”.

For “U^FAAU^FACU^FGCCGGGU^FAAU^FGAU^FGGA [modified miR-200c]”, the “pancreatic cancer cell proliferation” value in data set [1] is listed as “inhibited”. The “leukemia cancer cell proliferation” value in data set [2] is “inhibited”. Further, the “cell proliferation, dose dependence” value in data set [3] and in data set [7] was “inhibited in a dose dependent manner” each time. Moreover, in data set [4], the “gastric cancer cell proliferation” value is reported as “inhibited”. Also, in data set [5], the “breast cancer cell proliferation” value is “inhibited”. Further, the “leukemia cancer cell proliferation, dose dependence” value in data set [6] was “inhibited in a dose dependent manner”. Besides, in data set [8], the “lung cancer cell proliferation” value is reported as “inhibited”.

Take “U^FAU^FU^FCAGGAAGGU^FGU^FU^FACU^FU^FAA (UAUUCAGGAAGGUGUUACUUAA; RNA, [5FU] at 1, 3, 4, 13, 15, 16, 19, 20, backbone not given here) [modified miR-506, miR-506 in which all (8) U bases are replaced by 5-fluorouracil]”: the “pancreatic cancer cell proliferation” value in data set [1] is on record as “inhibited”. The “leukemia cancer cell proliferation” value in data set [2] is “inhibited”. Also, the “cell proliferation, dose dependence” value in data set [3] and in data set [7] was “inhibited in a dose dependent manner” throughout. Also, in data set [4], the “gastric cancer cell proliferation” value is listed as “inhibited”. In data set [5], the “breast cancer cell proliferation” value is recorded as “inhibited”. Besides, the “leukemia cancer cell proliferation, dose dependence” value in data set [6] was “inhibited in a dose dependent manner”. Moreover, the “lung cancer cell proliferation” value in data set [8] is “inhibited”.
